Assay results: US7572765B2, “Conformationally constrained parathyroid hormone (PTH) analogs” (The General Hospital Corporation, priority 2001, dated 2009)
Square brackets hold non-standard residues; d marks the D form. Peptide text beside a SMILES is read from it. hArg = N=C(N)NCCCC[C@H](N)C(=O)O; Aib = CC(C)(N)C(=O)O

Target: T1, P1R-delNt, truncated human P1R deleted for residues (24-181) (Homo sapiens, UniProt Q03431)
T1 construct: expressed in transfected cells; host or cells: COS-7 (transient, FuGENE 6)
T1 sequence (Q03431 with tags, fused parts or gaps limits assumed): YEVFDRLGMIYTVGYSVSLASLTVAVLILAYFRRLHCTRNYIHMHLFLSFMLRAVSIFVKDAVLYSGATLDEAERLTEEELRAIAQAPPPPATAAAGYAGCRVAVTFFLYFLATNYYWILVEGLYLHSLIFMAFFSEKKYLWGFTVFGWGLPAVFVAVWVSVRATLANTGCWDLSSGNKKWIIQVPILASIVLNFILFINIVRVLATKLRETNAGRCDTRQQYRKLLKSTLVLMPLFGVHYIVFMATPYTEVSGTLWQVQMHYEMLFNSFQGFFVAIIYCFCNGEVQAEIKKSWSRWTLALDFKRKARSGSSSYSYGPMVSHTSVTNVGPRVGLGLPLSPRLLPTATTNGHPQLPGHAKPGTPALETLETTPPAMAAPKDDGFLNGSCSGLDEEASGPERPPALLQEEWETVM
Experiment: Stimulation of inositol phosphate production (PLC) in COS-7 cells expressing hP1R-delNt
Type: cell-based
Settings: for increase in inositol phosphate (IP) production relative to the basal level: P1R-delNt
Experimental: Cell Culture. The cell line HKRK-B28 (Takasu, H., et al., J. Bone Miner. Res. 14:11-20 (1999)) was derived from the porcine kidney cell line, LLC-PK1 by stable transfection with plasmid DNA encoding the human P1R and expresses ˜280,000 receptors per cell. These cells, as well as COS-7 cells and SaOS-2-B10 cells, were cultured at […] in T-75 flasks ([…]) in Dulbecco's modified Eagle's medium (DMEM) supplemented with fetal bovine serum (10%), penicillin G (20 units/ml), streptomycin sulfate (20 μg/ml) and amphotericin B (0.05 μg/ml) in a humidified atmosphere containing 5% CO2. Stock solutions of EGTA/trypsin and antibiotics were from GIBCO; fetal bovine serum was from Hyclone Laboratories (Logan, Utah). COS-7 cells sub-cultured in 24-well plates were transfected with plasmid DNA (200 ng per well) encoding the wild-type human P1R or truncated human P1R deleted for residues (24-181) (Shimizu, M., et al., J. Biol. Chem. 275:21836-21843 (2000)) that was purified by cesium chloride/ethidium bromide density gradient centrifugation, and FuGENE 6 transfection reagent (Roche Indianapolis Ind.) according to the manufacturer's recommended procedure. All cells, in 24-well plates, were treated with fresh media and shifted to 33° C. for 12 to 24 h prior to assay.
Stimulation of Inositol Phosphate Production. COS-7 cells transfected as above with P1R-WT were treated with serum-free, inositol-free DMEM containing 0.1% bovine serum albumin and [^3H]myo-inositol (NEN, Boston, Mass.) (2 μCi/mL) for 16 h prior to assay. At the time of the assay, the cells were rinsed with binding buffer containing LiCl (30 mM) and treated with the same buffer with or without a PTH analog. The cells were then incubated at 37° C. for 40 min, after which the buffer was removed and replaced by 0.5 mL of ice cold 5% trichloroacetic acid solution. After 3 h on ice, the lysate was collected and extracted twice with ethyl ether. The lysate was then applied to an ion exchange column (0.5 mL resin bed) and the total inositol phosphates were eluted as described previously (Berridge, M. J., et al., Biochem. J. 212:473-482 (1983)), and counted in liquid scintillation cocktail.
Thus, the truncated receptor can couple to the PCL signaling pathway when stimulated with the Aib-containing PTH peptide. […] Thus, the Aib-1,3 substitutions enhance the ligand's capacity to stimulate PLC activity with P1R-WT, as well as with P1R-delNt.

Structure (SMILES)	increase in inositol phosphate (IP) production relative to the basal level	PLC EMAX(obs.) (hP1R-delNT) [foldxbasal]	EC50 (hP1R-delNT, dash = no PLC response observed) [nM]
CCCC[C@H](NC(=O)[C@H](CCCNC(=N)N)NC(=O)[C@H](CCC(=O)O)NC(=O)[C@@H](NC(=O)[C@H](CO)NC(=O)[C@H](C)NC(=O)[C@H](CC(C)C)NC(=O)[C@H](Cc1c[nH]cn1)NC(=O)[C@H](CCCCN)NC(=O)CNC(=O)[C@H](CC(C)C)NC(=O)[C@H](CC(N)=O)NC(=O)[C@H](Cc1c[nH]cn1)NC(=O)[C@H](CCCC)NC(=O)[C@H](CC(C)C)NC(=O)[C@H](CCC(N)=O)NC(=O)[C@@H](NC(=O)[C@H](CCC(=O)O)NC(=O)[C@H](CO)NC(=O)[C@@H](NC(=O)[C@H](C)N)C(C)C)[C@@H](C)CC)C(C)C)C(=O)N[C@@H](CCC(N)=O)C(=O)N[C@@H](Cc1c[nH]c2ccccc12)C(=O)N[C@@H](CC(C)C)C(=O)N[C@@H](CCCNC(=N)N)C(=O)N[C@@H](CCCCN)C(=O)N[C@@H](CCCCN)C(=O)N[C@@H](CC(C)C)C(=O)N[C@@H](CCC(N)=O)C(=O)N[C@@H](CC(=O)O)C(=O)N[C@H](C(=O)N[C@@H](Cc1c[nH]cn1)C(=O)N[C@@H](CC(N)=O)C(=O)N[C@@H](Cc1ccc(O)cc1)C(N)=O)C(C)C [PTH(1-34), [Nle^8,21, Tyr^34]PTH(1-34)amide, reference compound]	inactive		
CC[C@H](C)[C@H](NC(=O)[C@H](CCC(=O)O)NC(=O)C(C)(C)NC(=O)[C@@H](NC(=O)C(C)(C)N)C(C)C)C(=O)N[C@@H](CCC(N)=O)C(=O)N[C@@H](CC(C)C)C(=O)N[C@@H](CCSC)C(=O)N[C@@H](Cc1c[nH]cn1)C(=O)N[C@@H](CCC(N)=O)C(=O)N[C@@H](CCCCNC(=N)N)C(=O)N[C@@H](C)C(=O)N[C@@H](CCCCN)C(=O)N[C@@H](Cc1c[nH]c2ccccc12)C(N)=O [[Aib^1,3,M]PTH(1-14), AibValAibGluIleGlnLeuMetHisGlnHarAlaLysTrp] (H-[Aib]V[Aib]EIQLMHQ[hArg]AKW-NH2)	~3 fold	3.1 ± 0.2	130 ± 30
CC[C@H](C)[C@H](NC(=O)[C@H](CCC(=O)O)NC(=O)[C@H](C)NC(=O)[C@@H](NC(=O)[C@H](C)N)C(C)C)C(=O)N[C@@H](CCC(N)=O)C(=O)N[C@@H](CC(C)C)C(=O)N[C@@H](CCSC)C(=O)N[C@@H](Cc1c[nH]cn1)C(=O)N[C@@H](CCC(N)=O)C(=O)N[C@@H](CCCCNC(=N)N)C(=O)N[C@@H](C)C(=O)N[C@@H](CCCCN)C(=O)N[C@@H](Cc1c[nH]c2ccccc12)C(N)=O [[M]PTH(1-14), [Ala^3,12,Gln^10,Har^11,Trp^14]PTH(1-14)amide, reference compound] (H-AVAEIQLMHQ[hArg]AKW-NH2)	inactive		
